Test results: paper PMC12444508, “Mechanistic Insights into the Anticancer Action of Novel 2‑Hydroxy-1,4-naphthoquinone Thiol Derivatives” (ACS Omega, 2025)

What was measured:
[1] = system: SCC-4 cells; experiment: MTT cell viability assay, SCC-4; assay type: cell-based, human; details: for IC50: Homo sapiens, SCC-4, 72 h, MTT, read-out: IC50 SCC-4; for selective index (SI) SCC-4: vs normal oral fibroblasts
Description: (§1) Human SCC-4, SCC-9, and SCC-25 cells, derived from a human oral tongue SCC (squamous cell carcinoma), were obtained from ATCC (CRL-1624, CRL-1629, and CRL-1628, respectively) and maintained in 1:1 DMEM/F12 (Dulbecco’s modified Eagle’s medium and Ham’s F12 medium; Gibco (Thermo Fisher, Waltham, MA, USA)) supplemented with 10% (v/v) FBS (fetal bovine serum; Invitrogen, Thermo Fisher, Waltham, MA, USA) and 400 ng/mL hydrocortisone (Sigma-Aldrich Corporation, St. Louis, MO, USA). B16-F10 (melanoma; CRL-6475), HCT-116 (colorectal cancer; CCL-247), and HepG2 (liver cancer; HB-8065), in addition to primary normal human gingival fibroblasts obtained from ATCC (PCS-201-018), were maintained in DMEM supplemented with 10% (v/v) of FBS and were used in a maximum of six passages. Cells were grown in a humidified environment containing 5% CO2 at 37 °C. For all biological assays, compounds and shikonin were solubilized in 100% DMSO (all Sigma-Aldrich Corp.) to a final concentration of 10 mM and lapachol in ethanol. The carboplatin control was prepared in water (Fauldcarbo; Libbs Farmacêutica, São Paulo, SP, Brazil) and was used as a standard anticancer compound.
(§2) The viability of OSCC cell lines and primary human fibroblast cells was assessed using the MTT assay as in ref . Briefly, cells were grown in triplicate in 96-well plates (5 × 10^3 cells/well) until confluence. Then, the medium was removed, fresh medium was added, and the cells were returned to the incubator in the presence of different compounds. DMSO at the same concentration was used as a control for 100% cell viability. After 72 h, cells were incubated with 0.5 mg/mL of MTT reagent (3-(4,5-dimethyl-2-thiazolyl)-2,5-diphenyl-2-H-tetrazolium bromide) (Sigma-Aldrich Corporation, Louis, MO, USA) for 3.5 h. Then, the wells containing the cells were washed with PBS heated to 37 °C, the formazan crystals were dissolved in a solvent solution (DMSO/methanol 1:1 v/v), and the absorbance was read at 560 nm using an EPOCH microplate spectrophotometer (BioTek Instruments, Winooski, VT, USA) with the background absorbance at 670 nm subtracted. Control chemotherapeutics (carboplatin and shikonin) were used.
(§3) Data are presented as means ± SD. IC50 values for the MTT assays were obtained by nonlinear regression using the […] 8.4.3.0 program (Intuitive Software for Science, San Diego, CA, USA) from at least three independent experiments. A dose–response curve (inhibitor) vs response using the least-squares method was used to determine the IC50, SD, and R2 of the data. The selectivity index was calculated as SI = IC50 of the compound in normal oral fibroblast cells/IC50 of the same compound for each oral cancer cell line (SCC-4, SCC-9, and SCC-25) and averaged when indicated.

[2] = system: HCT-116 (colorectal cancer); experiment: MTT cytotoxicity/selectivity, HCT-116; assay type: cell-based; details: vs normal oral fibroblasts
Description: as §1
as §2, with “DMSO at the same concentration was used as a control for 100% cell viability. After 72 h, cells were incubated with 0.5 mg/mL of MTT reagent (3-(4,5-dimethyl-2-thiazolyl)-2,5-diphenyl-2-H-tetrazolium bromide) (Sigma-Aldrich Corporation, Louis, MO, USA) for 3.5 h.” left out, “Control chemotherapeutics (carboplatin and shikonin) were used.” left out
Data are presented as means ± SD. […] The selectivity index was calculated as SI = IC50 of the compound in normal oral fibroblast cells/IC50 of the same compound for each oral cancer cell line (SCC-4, SCC-9, and SCC-25) and averaged when indicated.

[3] = system: SCC-25 cells; experiment: MTT cell viability assay, SCC-25; assay type: cell-based, human; details: for IC50: Homo sapiens, SCC-25, 72 h, MTT, read-out: IC50 SCC-25; for selective index (SI) SCC-25: vs normal oral fibroblasts
Description: as §1, §2, §3

[4] = Hemolysis assay; assay type: cell-based, human; details: human, human erythrocytes, Triton X-100 positive control, read-out: % Hemolysis (Mean ± SD)
Description: To determine the surfactant power of the substances present in biological membranes, a hemolysis test was carried out with human blood approved by the Research Ethics Committee of the Universidade Federal Fluminense (CAAE: 43134721.4.0000.5626). Erythrocytes were collected for centrifugation at 1500 rpm for 15 min, washed with PBS (phosphate-buffered saline) supplemented with 10 mM glucose, and counted in an automatic cell counter (Thermo Fisher, Waltham, MA, USA). […] In total, 10 μL of PBS was used as a negative control, and 10 μL of PBS with 0.1% Triton x 100 was used as a positive control. Data reading was performed with EPOCH (BioTek Instruments, Winooski, VT, USA) at an absorbance of 540 nm, and statistical data were generated using […] Prism 8.4.3.0 program (Intuitive Software for Science, San Diego, CA, USA).

[5] = system: SCC-9 cells (OSCC cells); experiment: MTT cell viability assay, SCC-9; assay type: cell-based, human; details: for IC50: Homo sapiens, SCC-9, 72 h, MTT, read-out: IC50 SCC-9 oral cancer; for SI (SCC-9): IC50 normal oral fibroblast / IC50 SCC-9
Description: as §1, §2, §3

[6] = system: SCC-9 cells; experiment: Cell migration (wound healing) assay; assay type: cell-based, human; details: 1/8 of IC50, 72 h, SCC-9, mitomycin C
Description: To evaluate the inhibitory capacity of cell migration by substances 7a and 7e, 2 × 10^5 cells of the SCC-9 lineage were plated in a 35 mm Petri dish containing 2.0 mL of supplemented DMEN/F-12 medium and incubated at 37 °C with 5% CO2 until they reached at least ∼100% confluence. After this time, the metabolized medium was removed, and the cells were washed once with PBS and fresh medium (2.0 mL) treated with mitomycin C (MMC), 1-amino-9a-metoxi-7-metil-4,7,9,9a-tetra-hidro-3H-furo[3,4:6,7]-nafto[1,2-d]-imidazole-2(1H)-ona (Sigma-Aldrich Corporation, San Luis, Missouri, USA) at a concentration of 0.5 mg/mL, in a volume of 0.5 μL/mL, and returned to the incubator for 2 h. At the end of the time, scratch wounds were created on the cell monolayer by using a 200 μL capacity tip. […] The plate containing the cells was inserted into a chamber adapted to a Leica DMi1 inverted optical microscope (Leica Microsystems, Wetzlar, Germany) under controlled conditions of CO2 (5%) and temperature (37 °C). Phase contrast images in timelapse footage at 20× magnification for 72 h were captured every 2 min and 24 s. Measurements between the captured margins were collected using ImageJ analysis software (National Institute of Health, USA). […] The percentage of wound closure at each subsequent time is calculated in relation to the initial distance (time: 0 h).

Row | SMILES | IC50 [1] | selective index (SI) SCC-4 [1] | selective index (SI) HCT-116 colon cancer [2] | IC50 [3] | selective index (SI) SCC-25 [3] | hemolysis at 500 µM [4] | IC50 [5] | SI (SCC-9) [5] | wound closure [6]
1 | COc1ccc(SC2C3=C(OC(C)(C)C2Sc2ccc(OC)cc2)C(=O)c2ccccc2C3=O)cc1 (stereo not drawn) [7e, 3,4-Bis((4-methoxyphenyl)thio)-2,2-dimethyl-3,4-dihydro-2H-benzo[g]chromene-5,10-dione] | 57.1 µM | 1.9 | 9.1 | 13 µM | 8.5 | < 2% | 46.5 µM | 2.4 | 54.7%
2 | CC1(C)OC2=C(C(=O)c3ccccc3C2=O)C(Sc2ccccc2)C1Sc1ccccc1 (stereo not drawn) [7a, 2,2-Dimethyl-3,4-bis(phenylthio)-3,4-dihydro-2H-benzo[g]chromene-5,10-dione] | 10.6 µM | 5.4 | 2.7 | 28.2 µM | 2.0 | < 2% | 26.3 µM | 2.2 | 28.4%
